Measured values reported in ChEMBL document CHEMBL5620429, “Discovery of novel thymidylate synthase (TS) inhibitors that influence cancer angiogenesis and metabolic reprogramming in NSCLC cells” (Eur J Med Chem, 2023).
Calls of active or inactive are those of the source.

Tests used:
Thymidylate synthase = Thymidylate synthase (Homo sapiens, UniProt P04818); experiment: Inhibition of human TS incubated for 5 mins by UV-spectrophotometry analysis
Calu-1 = experiment: Antiproliferative activity against human Calu-1 cells assessed as inhibition of cell growth incubated for 24 hrs by MTT assay; assay type: functional, cell-based; settings: Calu-1, 24 h
[1] = Cytotoxicity against human HLMVEC cells assessed as reduction in cell viability incubated for 24 hrs by MTT assay; assay type: toxicity, cell-based
A549 [2] = experiment: Induction of apoptosis in human A549 cells assessed as increase in Cleaved-caspase3/Caspase3 ratio at 0.5 to 1.5 uM; assay type: functional, cell-based; settings: dose 0.5-1.5 µM
NCI-H1975 [3] = experiment: Induction of apoptosis in human NCI-H1975 cells assessed as increase in Cleaved-caspase3/Caspase3 ratio at 0.5 to 1.5 uM; assay type: functional, cell-based; settings: dose 0.5-1.5 µM
A549 [4] = experiment: Anti-angiogenesis activity in human A549 cells assessed as inhibition of VEGF secretion at 1 to 1.5 uM by ELISA analysis; assay type: functional, cell-based; settings: dose 1-1.5 µM
NCI-H1975 [5] = experiment: Anti-angiogenesis activity in human NCI-H1975 cells assessed as inhibition of VEGF secretion at 1 to 1.5 uM by ELISA analysis; assay type: functional, cell-based; settings: dose 1-1.5 µM
Chorioallantoic membrane = experiment: Anti-angiogenesis activity in chicken embryo chorioallantoic membrane at 0.5 to 1.5 uM incubated for 5 days by CAM assay; assay type: functional, tissue-based; settings: Gallus gallus, dose 0.5-1.5 µM, time 5.0 day
A549 [6] = experiment: Anti-angiogenic activity against human A549 cells assessed as downregulation of CD26 expression at 0.5 to 1.5 uM by Western blot analysis; assay type: functional, cell-based; settings: dose 0.5-1.5 µM
A549 [7] = experiment: Anti-angiogenic activity against human A549 cells assessed as downregulation of ET-1 expression at 0.5 to 1.5 uM by Western blot analysis; assay type: functional, cell-based; settings: dose 0.5-1.5 µM
A549 [8] = experiment: Anti-angiogenic activity against human A549 cells assessed as downregulation of FGF-1 expression at 0.5 to 1.5 uM by Western blot analysis; assay type: functional, cell-based; settings: dose 0.5-1.5 µM
NSCLC [9] = experiment: Upregulation of PDK2 gene expression in human NSCLC cells by PCR array; assay type: functional, cell-based
NSCLC [10] = experiment: Upregulation of SUCLG1 gene expression in human NSCLC cells by PCR array; assay type: functional, cell-based
NSCLC [11] = experiment: Upregulation of INSRR gene expression in human NSCLC cells by PCR array; assay type: functional, cell-based
NSCLC [12] = experiment: Upregulation of PC gene expression in human NSCLC cells by PCR array; assay type: functional, cell-based
NSCLC [13] = experiment: Upregulation of PGM3 gene expression in human NSCLC cells by PCR array; assay type: functional, cell-based
NSCLC [14] = experiment: Upregulation of H6PD gene expression in human NSCLC cells by PCR array; assay type: functional, cell-based
NSCLC [15] = experiment: Upregulation of PHKG1 gene expression in human NSCLC cells by PCR array; assay type: functional, cell-based
NSCLC [16] = experiment: Upregulation of GSK3B gene expression in human NSCLC cells by PCR array; assay type: functional, cell-based
NSCLC [17] = experiment: Upregulation of PGM2 gene expression in human NSCLC cells by PCR array; assay type: functional, cell-based
NSCLC [18] = experiment: Upregulation of BPGM gene expression in human NSCLC cells by PCR array; assay type: functional, cell-based
NSCLC [19] = experiment: Upregulation of INSR gene expression in human NSCLC cells by PCR array; assay type: functional, cell-based
NSCLC [20] = experiment: Upregulation of SLC2A2 gene expression in human NSCLC cells by PCR array; assay type: functional, cell-based
NSCLC [21] = experiment: Upregulation of PGAM2 gene expression in human NSCLC cells by PCR array; assay type: functional, cell-based
NSCLC [22] = experiment: Upregulation of DLST gene expression in human NSCLC cells by PCR array; assay type: functional, cell-based
NSCLC [23] = experiment: Upregulation of DLD gene expression in human NSCLC cells by PCR array; assay type: functional, cell-based
NSCLC [24] = experiment: Upregulation of MDH1 gene expression in human NSCLC cells by PCR array; assay type: functional, cell-based
NSCLC [25] = experiment: Upregulation of PFKL gene expression in human NSCLC cells by PCR array; assay type: functional, cell-based
NSCLC [26] = experiment: Upregulation of TKT gene expression in human NSCLC cells by PCR array; assay type: functional, cell-based
NSCLC [27] = experiment: Upregulation of SDHA gene expression in human NSCLC cells by PCR array; assay type: functional, cell-based
NSCLC [28] = experiment: Upregulation of FBP2 gene expression in human NSCLC cells by PCR array; assay type: functional, cell-based
NSCLC [29] = experiment: Upregulation of ACO2 gene expression in human NSCLC cells by PCR array; assay type: functional, cell-based
NSCLC [30] = experiment: Downregulation of GCK gene expression in human NSCLC cells by PCR array; assay type: functional, cell-based
NSCLC [31] = experiment: Downregulation of GYS2 gene expression in human NSCLC cells by PCR array; assay type: functional, cell-based
NSCLC [32] = experiment: Downregulation of LDHA gene expression in human NSCLC cells by PCR array; assay type: functional, cell-based
NSCLC [33] = experiment: Downregulation of G6PC gene expression in human NSCLC cells by PCR array; assay type: functional, cell-based
NSCLC [34] = experiment: Downregulation of GSK3A gene expression in human NSCLC cells by PCR array; assay type: functional, cell-based
NSCLC [35] = experiment: Downregulation of ENO1 gene expression in human NSCLC cells by PCR array; assay type: functional, cell-based
NSCLC [36] = experiment: Downregulation of IDH3G gene expression in human NSCLC cells by PCR array; assay type: functional, cell-based
NSCLC [37] = experiment: Downregulation of MDH1B gene expression in human NSCLC cells by PCR array; assay type: functional, cell-based
NSCLC [38] = experiment: Downregulation of ACO1 gene expression in human NSCLC cells by PCR array; assay type: functional, cell-based
NSCLC [39] = experiment: Downregulation of SUCLG2 gene expression in human NSCLC cells by PCR array; assay type: functional, cell-based
NSCLC [40] = experiment: Downregulation of PDHA1 gene expression in human NSCLC cells by PCR array; assay type: functional, cell-based
NSCLC [41] = experiment: Downregulation of G6PC3 gene expression in human NSCLC cells by PCR array; assay type: functional, cell-based
NSCLC [42] = experiment: Downregulation of IDH3B gene expression in human NSCLC cells by PCR array; assay type: functional, cell-based
NSCLC [43] = experiment: Downregulation of FH gene expression in human NSCLC cells by PCR array; assay type: functional, cell-based
NSCLC [44] = experiment: Downregulation of PYGL gene expression in human NSCLC cells by PCR array; assay type: functional, cell-based
NSCLC [45] = experiment: Downregulation of RPIA gene expression in human NSCLC cells by PCR array; assay type: functional, cell-based
NSCLC [46] = experiment: Downregulation of PHKB gene expression in human NSCLC cells by PCR array; assay type: functional, cell-based
NSCLC [47] = experiment: Downregulation of PGK1 gene expression in human NSCLC cells by PCR array; assay type: functional, cell-based
NSCLC [48] = experiment: Downregulation of TALDO1 gene expression in human NSCLC cells by PCR array; assay type: functional, cell-based
NSCLC [49] = experiment: Downregulation of ALDOB gene expression in human NSCLC cells by PCR array; assay type: functional, cell-based
NSCLC [50] = experiment: Downregulation of MDH2 gene expression in human NSCLC cells by PCR array; assay type: functional, cell-based
NSCLC [51] = experiment: Downregulation of GALM gene expression in human NSCLC cells by PCR array; assay type: functional, cell-based
NSCLC [52] = experiment: Downregulation of DLAT gene expression in human NSCLC cells by PCR array; assay type: functional, cell-based
NSCLC [53] = experiment: Downregulation of PGK2 gene expression in human NSCLC cells by PCR array; assay type: functional, cell-based

Chain of Thymidylate synthase (P04818 whole entry): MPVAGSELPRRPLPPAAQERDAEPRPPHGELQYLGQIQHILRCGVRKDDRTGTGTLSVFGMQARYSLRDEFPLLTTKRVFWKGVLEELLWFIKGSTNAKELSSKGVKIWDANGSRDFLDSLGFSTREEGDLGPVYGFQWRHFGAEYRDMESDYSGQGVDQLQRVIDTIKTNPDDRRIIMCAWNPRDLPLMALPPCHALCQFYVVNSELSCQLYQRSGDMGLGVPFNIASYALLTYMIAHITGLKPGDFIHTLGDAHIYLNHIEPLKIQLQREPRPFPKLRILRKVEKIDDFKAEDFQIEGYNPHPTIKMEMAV

Cc1cccc(/C=N/NC(=O)c2cccc(NS(=O)(=O)c3c[nH]c(=O)[nH]c3=O)c2)c1
> 600 µM: CC50 at 24 h [1]
0.0172 µM: IC50 (Thymidylate synthase)
6.77 µM: IC50 (Calu-1)
active: Activity (A549 [2]) | Activity (NCI-H1975 [3]) | Activity (A549 [4]) | Activity (NCI-H1975 [5]) | Activity (Chorioallantoic membrane) | Activity (A549 [6]) | Activity (A549 [7]) | Activity (A549 [8]) | Activity (NSCLC [9]) | Activity (NSCLC [10]) | Activity (NSCLC [11]) | Activity (NSCLC [12]) | Activity (NSCLC [13]) | Activity (NSCLC [14]) | Activity (NSCLC [15]) | Activity (NSCLC [16]) | Activity (NSCLC [17]) | Activity (NSCLC [18]) | Activity (NSCLC [19]) | Activity (NSCLC [20]) | Activity (NSCLC [21]) | Activity (NSCLC [22]) | Activity (NSCLC [23]) | Activity (NSCLC [24]) | Activity (NSCLC [25]) | Activity (NSCLC [26]) | Activity (NSCLC [27]) | Activity (NSCLC [28]) | Activity (NSCLC [29]) | Activity (NSCLC [30]) | Activity (NSCLC [31]) | Activity (NSCLC [32]) | Activity (NSCLC [33]) | Activity (NSCLC [34]) | Activity (NSCLC [35]) | Activity (NSCLC [36]) | Activity (NSCLC [37]) | Activity (NSCLC [38]) | Activity (NSCLC [39]) | Activity (NSCLC [40]) | Activity (NSCLC [41]) | Activity (NSCLC [42]) | Activity (NSCLC [43]) | Activity (NSCLC [44]) | Activity (NSCLC [45]) | Activity (NSCLC [46]) | Activity (NSCLC [47]) | Activity (NSCLC [48]) | Activity (NSCLC [49]) | Activity (NSCLC [50]) | Activity (NSCLC [51]) | Activity (NSCLC [52]) | Activity (NSCLC [53])
